Measurements as given in the NIST ThermoML archive (doi:10.1021/je901020a).

What was measured:
[1] = xn = mol fraction of the nth substance listed; conditions: 101 kPa, Liquid; for speed of sound: Pulse-echo method
[2] = refractive index (Na D-line) (dimensionless); xn = mol fraction of the nth substance listed; conditions: 101 kPa, Liquid, Standard Abbe refractometry

Cc1cc(C)cc(C)c1 [1,3,5-trimethylbenzene] + C1CCCC1
x2 = 0
Conditions	mass density, [1] [kg/m3]	refractive index, [2]	speed of sound, [1] [m/s]
298.15 K	861.1	1.49693	1336
313.15 K	848.8	1.48923	1277

Cc1cccc(C)c1 [1,3-dimethylbenzene] + C1CCCCC1
Conditions	mass density, [1] [kg/m3]	refractive index, [2]	speed of sound, [1] [m/s]
298.15 K, x2 = 0	859.8	1.49466	1321
298.15 K, x2 = 0.0346	856.9	1.49219	1317
298.15 K, x2 = 0.096	851.4	1.48781	1310
298.15 K, x2 = 0.1974	842.2	1.48052	1300
298.15 K, x2 = 0.2879	834.1	1.47391	1291
298.15 K, x2 = 0.3982	824.1	1.46589	1281
298.15 K, x2 = 0.5005	815	1.45851	1273
298.15 K, x2 = 0.6019	806.2	1.45128	1267
298.15 K, x2 = 0.6976	797.9	1.44447	1261
298.15 K, x2 = 0.7985	789.4	1.43723	1257
298.15 K, x2 = 0.9021	781.1	1.42992	1254
298.15 K, x2 = 0.9509	777.4	1.42673	1254
313.15 K, x2 = 0	846.9	1.48653	1259
313.15 K, x2 = 0.0355	843.7	1.48408	1255
313.15 K, x2 = 0.095	838.3	1.47988	1248
313.15 K, x2 = 0.1903	829.6	1.47305	1238
313.15 K, x2 = 0.2937	820.2	1.46566	1227
313.15 K, x2 = 0.3969	810.8	1.45826	1217
313.15 K, x2 = 0.4919	802.3	1.45153	1209
313.15 K, x2 = 0.5952	793.1	1.44402	1200
313.15 K, x2 = 0.6963	784.3	1.43677	1193
313.15 K, x2 = 0.7968	775.5	1.42954	1187
313.15 K, x2 = 0.8984	767.3	1.42246	1183
313.15 K, x2 = 0.9496	763.45	1.41885	1182

C1CCCCCCC1 [cyclooctane] + Cc1cc(C)cc(C)c1
Conditions	mass density, [1] [kg/m3]	refractive index, [2]	speed of sound, [1] [m/s]
298.15 K, x1 = 0.0496	858.9	1.49453	1338
298.15 K, x1 = 0.1026	856.8	1.49198	1339
298.15 K, x1 = 0.2035	852.7	1.48725	1341
298.15 K, x1 = 0.307	848.8	1.48253	1345
298.15 K, x1 = 0.4062	845.2	1.47807	1349
298.15 K, x1 = 0.5042	841.9	1.47384	1354
298.15 K, x1 = 0.598	839	1.46995	1359
298.15 K, x1 = 0.696	836.2	1.46606	1366
298.15 K, x1 = 0.8308	833.3	1.46115	1376
298.15 K, x1 = 0.8926	832.3	1.45905	1381
298.15 K, x1 = 0.9484	831.7	1.45738	1386
298.15 K, x1 = 1	831.5	1.45598	1391
313.15 K, x1 = 0.0517	846.6	1.48694	1277
313.15 K, x1 = 0.0872	845.2	1.48532	1278
313.15 K, x1 = 0.1842	841.3	1.48082	1280
313.15 K, x1 = 0.2935	837.2	1.4759	1283
313.15 K, x1 = 0.3891	833.8	1.47166	1287
313.15 K, x1 = 0.4882	830.4	1.46743	1291
313.15 K, x1 = 0.5857	827.5	1.4634	1296
313.15 K, x1 = 0.6847	824.6	1.45952	1302
313.15 K, x1 = 0.791	822.1	1.45559	1309
313.15 K, x1 = 0.8911	820.3	1.45214	1317
313.15 K, x1 = 0.939	819.7	1.45053	1321
313.15 K, x1 = 1	819.2	1.44877	1325

Cc1ccccc1C [1,2-dimethylbenzene] + C1CCCC1
x2 = 0
Conditions	mass density, [1] [kg/m3]	refractive index, [2]	speed of sound, [1] [m/s]
298.15 K	875.4	1.50262	1350
313.15 K	862.9	1.49466	1290

C1CCCCC1 [cyclohexane] + Cc1ccc(C)cc1
x1 = 1
Conditions	mass density, [1] [kg/m3]	refractive index, [2]	speed of sound, [1] [m/s]
298.15 K	773.9	1.4236	1255
313.15 K	759.6	1.41516	1182

Cc1cc(C)cc(C)c1 [1,3,5-trimethylbenzene] + C1CCCCCCC1
x2 = 0
Conditions	mass density, [1] [kg/m3]	refractive index, [2]	speed of sound, [1] [m/s]
298.15 K	861.1	1.49693	1336
313.15 K	848.8	1.48923	1277

Cc1ccccc1C [1,2-dimethylbenzene] + CC1CCCCC1
x2 = 0
Conditions	mass density, [1] [kg/m3]	refractive index, [2]	speed of sound, [1] [m/s]
298.15 K	875.4	1.50262	1350
313.15 K	862.9	1.49466	1289
